Converted amounts (≈) assume the structure as drawn. Read-outs that look alike come from different tables or passages of the source. Bridge positions count the residues as written; N and C are the ends. Ends that are not written are not given here. Peptide text beside a SMILES is read from it.
Legend:
[1] = tested on: G− Bacteria; test: Geometric mean of MICs and TI value; format: cell-based; settings: geometric mean of MICs against tested Gram-negative bacteria
Experimental: (§1) The therapeutic potential of antimicrobial agents was valued based on their selectivity toward bacteria in reference to erythrocytes. The TI value was calculated from the results of antibacterial and haemolysis experiments of peptides using the following formula:TI value = HC10 / GMMICs.
(§2) GM was the geometric mean of MICs against all tested bacteria.

[2] = tested on: G+ Bacteria; test: Geometric mean of MICs and TI value; format: cell-based; settings: geometric mean of MICs against tested Gram-positive bacteria
Experimental: as §1, §2

[3] = tested on: K. pneumoniae (ATCC 43816); test: microbe, parasite or virus in culture; format: cell-based, Klebsiella pneumoniae; settings: planktonic K. pneumoniae ATCC 43816; for MIC: 37 °C, nine repeats of three independent experiments; for MBC: lowest concentration killing 99.9% of inoculum
Source text: (§3) The minimum inhibitory concentration (MIC) is the minimum concentration of an antimicrobial agent that prevents the visible growth of a bacterium or bacteria. The MIC is an important piece of data for research on new antimicrobial agents and helps in the effective selection of antibiotics to improve the success of treatment. The minimum bactericidal concentration (MBC) is defined as the lowest antibiotic concentration that kills 99.9% of the inoculum. This study mainly contained eight different microorganisms, which were Staphylococcus aureus (ATCC 6538), methicillin-resistant Staphylococcus aureus (NCTC 12493), Enterococcus faecalis (NCTC 12697), Escherichia coli (ATCC 8739), Klebsiella pneumoniae (ATCC 43816), Pseudomonas aeruginosa (ATCC CRM 9027), Acinetobacter baumannii (BAA 747), and Candida albicans (ATCC 10231). The bacteria were incubated in the compatible medium at 37 °C overnight.

[4] = tested on: horse red blood cells; settings: horse red blood cells in PBS, 37 °C, 2 h, absorbance 570 nm; positive control 0.1% Triton
Experimental: The pure peptide was dissolved in PBS and then two-fold diluted to obtain a series of concentrations: 512, 256, 128, 64, 32, 16, 8, 4, and 2 μM. A positive control (0.1% Triton) and blank control (PBS) were used. Two millilitres of fresh horse red blood cells were washed in PBS until the supernatant became colourless and clear, and the mixture was then thoroughly mixed. Each mixture contained 100 μL of peptide solution or controls and 100 μL of horse red blood cells, which were then incubated at 37 °C for 2 h and centrifuged at 930× g for 10 min. Subsequently, 100 μL of supernatant from each tube was transferred into a 96-well plate, and the plate reader measured the absorbance at a wavelength of 570 nm. The haemolysis rate was calculated using the following formula:Percentage Haemolysis= (ASample − ABlank)/(APositive − ABlank) × 100%

[5] = tested on: E. coli (ATCC 8739); test: microbe, parasite or virus in culture; format: cell-based, Escherichia coli; settings: planktonic E. coli ATCC 8739; for MIC: 37 °C, nine repeats of three independent experiments; for MBC: lowest concentration killing 99.9% of inoculum
Source text: as §3

[6] = tested on: C. albicans (ATCC 10231); format: cell-based, Candida albicans; settings: yeast C. albicans ATCC 10231; for MIC: 37 °C, nine repeats of three independent experiments; for MBC: lowest concentration killing 99.9% of inoculum
Source text: as §3

[7] = tested on: MRSA (NCTC 12493); test: microbe, parasite or virus in culture; format: cell-based, methicillin-resistant Staphylococcus aureus; settings: planktonic MRSA NCTC 12493; for MIC: 37 °C, nine repeats of three independent experiments; for MBC: lowest concentration killing 99.9% of inoculum
Source text: as §3

[8] = tested on: P. aeruginosa (ATCC CRM 9027); test: microbe, parasite or virus in culture; format: cell-based, Pseudomonas aeruginosa; settings: planktonic P. aeruginosa ATCC CRM 9027; for MIC: 37 °C, nine repeats of three independent experiments; for MBC: lowest concentration killing 99.9% of inoculum
Source text: as §3

[9] = tested on: S. aureus (ATCC 6538); test: microbe, parasite or virus in culture; format: cell-based, Staphylococcus aureus; settings: planktonic S. aureus ATCC 6538; for MIC: 37 °C, nine repeats of three independent experiments; for MBC: lowest concentration killing 99.9% of inoculum
Source text: as §3

[10] = tested on: A. baumannii (BAA 747); test: microbe, parasite or virus in culture; format: cell-based, Acinetobacter baumannii; settings: planktonic A. baumannii BAA 747; for MIC: 37 °C, nine repeats of three independent experiments; for MBC: lowest concentration killing 99.9% of inoculum
Source text: as §3

[11] = tested on: Yeast; test: Geometric mean of MICs and TI value; format: cell-based, Candida albicans; settings: C. albicans ATCC 10231
Experimental: as §1, §2

[12] = tested on: E. faecalis (NCTC 12697); test: microbe, parasite or virus in culture; format: cell-based, Enterococcus faecalis; settings: planktonic E. faecalis NCTC 12697; for MIC: 37 °C, nine repeats of three independent experiments; for MBC: lowest concentration killing 99.9% of inoculum
Source text: as §3

CC[C@H](C)[C@H](NC(=O)[C@H](CCCCN)NC(=O)[C@H](CCCCN)NC(=O)CNC(=O)[C@H](C)NC(=O)[C@H](C)NC(=O)[C@H](CC(C)C)NC(=O)[C@@H](NC(=O)[C@H](C)NC(=O)[C@H](CCCNC(=N)N)NC(=O)[C@H](CC(C)C)NC(=O)[C@H](CC(C)C)NC(=O)CN)C(C)C)C(=O)N[C@H](C(=O)N[C@H]1CSSC[C@@H](C(=O)O)NC(=O)[C@H](CCCNC(=N)N)NC(=O)CNC(=O)[C@H](CO)NC(=O)[C@H](CC(C)C)NC(=O)CNC1=O)C(C)C [Peptide 2085-R] (H-GLLRAVLAAGKKIVCGLSGRC-OH; disulfide 15-21)
GM (geometric mean of MICs), G− Bacteria [1]: 32.00 µM | GM (geometric mean of MICs), G+ Bacteria [2]: 25.40 µM | MIC ([3]; read-out: MIC): 32 µM (≈ 66.7 µg/mL) | MBC ([3]; read-out: MBC): 64 µM (≈ 133 µg/mL) | HC10 [4]: >256 µM | MIC [5]: 16 µM (≈ 33.3 µg/mL) | MBC [5]: 16 µM (≈ 33.3 µg/mL) | MIC [6]: 32 µM (≈ 66.7 µg/mL) | MBC [6]: 32 µM (≈ 66.7 µg/mL) | MIC ([7]; read-out: MIC): 16 µM (≈ 33.3 µg/mL) | MBC ([7]; read-out: MBC): 32 µM (≈ 66.7 µg/mL) | MIC [8]: 64 µM (≈ 133 µg/mL) | MBC [8]: 64 µM (≈ 133 µg/mL) | MIC [9]: 16 µM (≈ 33.3 µg/mL) | MBC [9]: 16 µM (≈ 33.3 µg/mL) | MIC ([10]; read-out: MIC): 32 µM (≈ 66.7 µg/mL) | MBC ([10]; read-out: MBC): 64 µM (≈ 133 µg/mL) | GM (geometric mean of MICs), Yeast [11]: 32.00 µM

GLLRGVLGAGKKIVCGLSGRC (disulfide 15-21 (inferred)) [Peptide 2057-C, N-terminus modified analogue of Nigrosin-6VL]
GM (geometric mean of MICs), G− Bacteria [1]: 64.00 µM | GM (geometric mean of MICs), G+ Bacteria [2]: 128.00 µM | MIC ([3]; read-out: MIC): 64 µM | MBC ([3]; read-out: MBC): 128 µM | HC10 [4]: >256 µM | MIC ([5]; read-out: MIC): 16 µM | MBC ([5]; read-out: MBC): 32 µM | MIC [6]: > 128 µM | MBC [6]: > 128 µM | MIC ([7]; read-out: MIC): 64 µM | MBC ([7]; read-out: MBC): 128 µM | MIC [12]: > 128 µM | MBC [12]: > 128 µM | MIC ([8]; read-out: MIC): 64 µM | MBC ([8]; read-out: MBC): 128 µM | MIC [9]: 128 µM | MBC [9]: > 128 µM | MIC [10]: > 128 µM | MBC [10]: > 128 µM | GM (geometric mean of MICs), Yeast [11]: 256.00 µM

GLLSGVLGAGKKIVAGLSGRA [Peptide 1924-A]
GM (geometric mean of MICs), G− Bacteria [1]: 107.63 µM | GM (geometric mean of MICs), G+ Bacteria [2]: 203.19 µM | MIC ([3]; read-out: MIC): 64 µM | MBC ([3]; read-out: MBC): 128 µM | HC10 [4]: >256 µM | MIC ([5]; read-out: MIC): 64 µM | MBC ([5]; read-out: MBC): 128 µM | MIC [6]: 64 µM | MBC [6]: 128 µM | MIC [7]: > 128 µM | MBC [7]: > 128 µM | MIC [12]: > 128 µM | MBC [12]: > 128 µM | MIC [8]: 128 µM | MBC [8]: > 128 µM | MIC [9]: 128 µM | MBC [9]: > 128 µM | MIC [10]: > 128 µM | MBC [10]: > 128 µM | GM (geometric mean of MICs), Yeast [11]: 64.00 µM

GLLSGVLGAGKKIVCGLSGR- [Peptide 1885-R, Rana Box modified analogue of Nigrosin-6VL]
GM (geometric mean of MICs), G− Bacteria [1]: 45.25 µM | GM (geometric mean of MICs), G+ Bacteria [2]: 128.00 µM | MIC ([3]; read-out: MIC): 32 µM | MBC ([3]; read-out: MBC): 64 µM | HC10 [4]: >256 µM | MIC ([5]; read-out: MIC): 32 µM | MBC ([5]; read-out: MBC): 64 µM | MIC [6]: > 128 µM | MBC [6]: > 128 µM | MIC [7]: 64 µM | MBC [7]: 64 µM | MIC [12]: > 128 µM | MBC [12]: > 128 µM | MIC ([8]; read-out: MIC): 32 µM | MBC ([8]; read-out: MBC): 64 µM | MIC [9]: 128 µM | MBC [9]: > 128 µM | MIC [10]: 128 µM | MBC [10]: > 128 µM | GM (geometric mean of MICs), Yeast [11]: 256.00 µM

GLLSGVLGAGKKIVGLSGRC [Peptide 1885-C]
GM (geometric mean of MICs), G− Bacteria [1]: 64.00 µM | GM (geometric mean of MICs), G+ Bacteria [2]: 256.00 µM | MIC ([3]; read-out: MIC): 64 µM | MBC ([3]; read-out: MBC): 128 µM | HC10 [4]: >256 µM | MIC ([5]; read-out: MIC): 16 µM | MBC ([5]; read-out: MBC): 32 µM | MIC [6]: > 128 µM | MBC [6]: > 128 µM | MIC [7]: > 128 µM | MBC [7]: > 128 µM | MIC [12]: > 128 µM | MBC [12]: > 128 µM | MIC ([8]; read-out: MIC): 64 µM | MBC ([8]; read-out: MBC): 128 µM | MIC [9]: > 128 µM | MBC [9]: > 128 µM | MIC [10]: > 128 µM | MBC [10]: > 128 µM | GM (geometric mean of MICs), Yeast [11]: 256.00 µM

H-GLLSGVLGAGKKIVGLSGR-OH [Peptide 1782-R]
GM (geometric mean of MICs), G− Bacteria [1]: 215.27 µM | GM (geometric mean of MICs), G+ Bacteria [2]: 256.00 µM | MIC [3]: > 128 µM | MBC [3]: > 128 µM | HC10 [4]: >256 µM | MIC [5]: 128 µM | MBC [5]: > 128 µM | MIC [6]: > 128 µM | MBC [6]: > 128 µM | MIC [7]: > 128 µM | MBC [7]: > 128 µM | MIC [12]: > 128 µM | MBC [12]: > 128 µM | MIC [8]: > 128 µM | MBC [8]: > 128 µM | MIC [9]: > 128 µM | MBC [9]: > 128 µM | MIC [10]: > 128 µM | MBC [10]: > 128 µM | GM (geometric mean of MICs), Yeast [11]: 256.00 µM
